Calls of active or inactive are those of the source. The rule behind the calls is not given here.
Tests used:
[1] = Antitumor activity against mouse HepS cells allografted in Kunming mouse assessed as tumor growth inhibition at 15 ug/kg, ip qd administered 24 hrs post challenge for 10 days; format: functional; conditions: read-out: GI
CCRF S-180 [2] = experiment: Antitumor activity against mouse S180 cells allografted in Kunming mouse assessed as tumor growth inhibition at 15 ug/kg, ip qd administered 24 hrs post challenge for 10 days; format: functional; conditions: CCRF S-180, ip, read-out: GI
[3] = Antitumor activity against mouse HepS cells allografted in Kunming mouse assessed as tumor growth inhibition at 60 ug/kg, ip qd administered 24 hrs post challenge for 10 days; format: functional; conditions: read-out: GI
CCRF S-180 [4] = experiment: Antitumor activity against mouse S180 cells allografted in Kunming mouse assessed as tumor growth inhibition at 60 ug/kg, ip qd administered 24 hrs post challenge for 10 days; format: functional; conditions: CCRF S-180, ip, read-out: GI
HepS [5] = experiment: Antitumor activity against mouse HepS cells allografted in ip dosed Kunming mouse assessed as tumor growth inhibition administered qd 24 hrs post challenge for 10 days; format: functional, organism-based
CCRF S-180 [6] = experiment: Antitumor activity against mouse S180 cells allografted in ip dosed Kunming mouse assessed as tumor growth inhibition administered qd 24 hrs post challenge for 10 days; format: functional, organism-based
Mus musculus [7] = experiment: Toxicity in Kunming mouse allografted with mouse HepS cells assessed as adverse effects at 60 ug/kg, ip qd administered 24 hrs post challenge for 10 days; format: organism-based; conditions: in vivo, 0.06 mg/kg
Mus musculus [8] = experiment: Toxicity in Kunming mouse allografted with mouse S180 cells assessed as adverse effects at 60 ug/kg, ip qd administered 24 hrs post challenge for 10 days; format: organism-based, CCRF S-180; conditions: in vivo, 0.06 mg/kg
[9] = Antitumor activity against mouse HepS cells allografted in Kunming mouse assessed as tumor growth inhibition at 40 ug/kg, ip qd administered 24 hrs post challenge for 10 days; format: functional; conditions: read-out: GI
CCRF S-180 [10] = experiment: Antitumor activity against mouse S180 cells allografted in Kunming mouse assessed as tumor growth inhibition at 40 ug/kg, ip qd administered 24 hrs post challenge for 10 days; format: functional; conditions: CCRF S-180, ip, read-out: GI
HepS [11] = experiment: Antitumor activity against mouse HepS cells allografted in Kunming mouse assessed as improved spleen index at 40 ug/kg, ip qd administered 24 hrs post challenge for 10 days; format: functional, organism-based
CCRF S-180 [12] = experiment: Antitumor activity against mouse S180 cells allografted in Kunming mouse assessed as improved spleen index at 40 ug/kg, ip qd administered 24 hrs post challenge for 10 days; format: functional, organism-based

Row | SMILES | inhibition in vivo at 0.015 mg/kg [1] | inhibition in vivo at 0.015 mg/kg (CCRF S-180 [2]) | inhibition in vivo at 0.06 mg/kg [3] | inhibition in vivo at 0.06 mg/kg (CCRF S-180 [4]) | growth inhibition (GI) (HepS [5]) | growth inhibition (GI) (CCRF S-180 [6]) | Activity (Mus musculus [7]) | Activity (Mus musculus [8]) | inhibition in vivo at 0.04 mg/kg [9] | inhibition in vivo at 0.04 mg/kg (CCRF S-180 [10]) | Activity (HepS [11]) | Activity (CCRF S-180 [12])
1 | CCCCCCCCCCCC[C@@H](O)[C@H]1CC[C@H]([C@H](O)CCCCCC(O)CCCCCCC2=C[C@H](C)OC2=O)O1 (some centres undefined) | 61.5% | 43.9% | 67.3% | 48.3% | Dose-dependent effect | Dose-dependent effect |  |  |  |  |  | 
2 | CCCCCCCCCC[C@H](O)[C@H]1CC[C@H]([C@H]2CC[C@H]([C@H](O)CCCCCCCCCCCCC3=C[C@H](C)OC3=O)O2)O1 [BULLANIN] | 32.5% | 42.3% | 70.9% | 63.9% | Dose-dependent effect | Dose-dependent effect |  |  |  |  |  | 
3 | CCCCCCCCCC[C@@H](O)[C@@H]1CC[C@@H]([C@@H]2CC[C@@H]([C@H](O)CCCCCCCCCC(O)CC3=CC(C)OC3=O)O2)O1 (some centres undefined) [BULLATACIN] | 63.4% | 65.8% |  |  | Dose-dependent effect | Dose-dependent effect |  |  |  |  |  | 
4 | CCCCCCCCCC[C@H](O)[C@H]1CC[C@H]([C@H]2CC[C@H]([C@H](O)CCCCCCCCCC[C@@H](O)CC3=C[C@H](C)OC3=O)O2)O1 [BULLATACIN] |  |  |  |  |  |  | Toxic | Toxic |  |  |  | 
5 | CC(=O)O[C@H]1C(=O)[C@@]2(C)[C@H]([C@H](OC(=O)c3ccccc3)[C@]3(O)C[C@H](OC(=O)[C@H](O)[C@@H](NC(=O)c4ccccc4)c4ccccc4)C(C)=C1C3(C)C)[C@]1(OC(C)=O)CO[C@@H]1C[C@@H]2O [PACLITAXEL] |  |  |  |  |  |  |  |  | 62.2% | 48.9% | Active | Active
6 | CCCCCC[C@H](O)CCC[C@H](O)[C@H]1CC[C@H]([C@H](O)CC[C@H](O)[C@@H]2CC[C@@H](CCCCCCCCCC3=C[C@H](C)OC3=O)O2)O1 [SQUAMOSTATIN A] | 15% | 52.7% | 31.2% | 54.2% | Dose-dependent effect | Dose-dependent effect |  |  |  |  |  | 
7 | CCCCCCCCCC[C@@H](O)[C@@H]1CC[C@@H]([C@H](O)CC[C@@H](O)[C@@H]2CC[C@@H](CCCCCCCCCC3=C[C@H](C)OC3=O)O2)O1 [SQUAMOSTATIN E] | 34.2% | 27.2% | 51.3% | 51.1% | Dose-dependent effect | Dose-dependent effect |  |  |  |  |  | 
